According to US9963703B2, “Compositions and methods for treating pancreatic cancer” (Autotelic LLC, priority 2016, dated 2018):
In the oligonucleotide strings, read from the 5' end, every base follows the letter of its sugar. An asterisk marks phosphorothioate; unmarked linkages are phosphodiester. Other units and linkages are bracketed, terminal groups are in braces. A string of capitals states the bases alone. d = 2'-deoxy (DNA)

Legend:
A-172 glioma cells = assay: Migration of A-172 glioma cells; format: cell-based
Method: (§1) A-172 glioma cells were treated with a combination of AP12009 (trabedersen) 0 to 10 μM) and different concentrations of TMZ (temozolomide) for 7 days (treatment schedule 2*2/1*3 d).

TGFβ2 = TGFβ2 secretion in A-172 glioma cells; format: cell-based
Method: as §1
In summary there is no clear beneficial effect in combining AP12009 with TMZ in A-172 cells.

[1] = AP12009 in combination with TMZ

Substance: trabedersen: TGF-beta2 specific phosphorothioate antisense oligodeoxynucleotide with the sequence 5′-CGGCATGTCTATTTTGTA-3′ (SEQ ID No: 1) (antisense dC*dG*dG*dC*dA*dT*dG*dT*dC*dT*dA*dT*dT*dT*dT*dG*dT*dA)
- effect on migration compared with untreated control (A-172 glioma cells; AP12009 10 μM monotherapy): did not affect migration
- effect of AP12009 on TMZ effect on migration (A-172 glioma cells; [1]): did not influence the effects of TMZ on migration
- combination effect on inhibition of TGFβ2 secretion (TGFβ2; [1]): additive effect
- effect on TGFβ2 (TGFβ2; monotherapy, 7 days): strongly reduced
